Test results reported in patent US20170112737A1, “COSMETICS AND PHARMACEUTICAL APPLICATIONS OF GALLIC ACID AND GALLIC ACID DERIVATIVES” (GREENPHARMA, priority 2014, published 2017).
Values joined by “and” are separate entries in the source; they are usually repeats but may differ in a detail not shown here. Equal entries are not always repeated.

Key:
Assay type in all cases: cell-based, human
TGK [1] = assay: TGK immunolabeling in situ in NHEK cultures (Example 3); conditions: 72 hours; for TGK Fluorescence intensity/Number of cells: individual values (n=3); for TGK expression in the NHEK cultures (in words): activity higher than CaCl2 reference as by 10 μg/ml
Protocol: Normal human epidermal keratinocytes (NHEK); reference BIOalternatives K341, used at the third passage. Culture conditions: 37° C., 5% CO2 Culture medium: keratinocytesSFM complemented with an epidermal growth factor (EGF) 0.25 ng/ml, a pituitary extract (PE) 25 μg/ml and gentamycin […]. Experiment medium: keratinocytesSFM complemented with gentamycin 25 μg/ml. The keratinocytes have been sowed and cultured to confluence in 96-well plates and then, the medium has been replaced by an experiment medium containing, or not (control test), the tested extract or the reference (CaCl2 at 1.5 mM) and the cells have been incubated for 72 hours. All experimental conditions have been realized with n=3, for each marker. After incubation, the test medium has been withdrawn and the cells have been rinsed, fixed and permeabilized. The cells have been marked with the primary antibodies directed against the considered proteins (TGK). […] In parallel, the nucleuses of the cells have been stained by the Hoechst 33258 (bisbenzimide). The acquisition of the images has been carried out with a high-resolution imaging system, INCell AnalyzerTM 1000 (GE Healthcare). For each well, 5 captures of digitized images have been performed. The labelings have been quantified by measurement of the fluorescence intensity of the proteins divided by the number of nucleuses identified by the Hoechst (integration of the digital data by the software Developer Toolbow 1.5, GE Healthcare).

TGK [2] = assay: TGK immunolabeling in situ in NHEK cultures, loosestrife extracts (Example 5); conditions: 72 hours, 1.5 mM
Protocol: Normal human epidermal keratinocytes (NHEK); reference BIOalternatives K341, used at the third passage.
Culture conditions: 37° C., 5% CO2
Culture medium: keratinocytesSFM complemented with an epidermal growth factor (EGF) 0.25 ng/ml, a pituitary extract (PE) 25 μg/ml and gentamycin 25 μg/ml.
Experiment medium: keratinocytesSFM complemented with gentamycin 25 μg/ml.
The keratinocytes have been sowed and cultured to confluence in 96-well plates and then, the medium has been replaced by an experiment medium containing, or not (control test), the tested extract or the reference (CaCl2 at 1.5 mM) and the cells have been incubated for 72 hours. All experimental conditions have been realized with n=3, for each marker.
After incubation, the test medium has been withdrawn and the cells have been rinsed, fixed and permeabilized. […] The acquisition of the images has been carried out with a high-resolution imaging system, INCell Analyzer™ ([…] (GE Healthcare). For each well, 5 captures of digitized images have been performed. The labelings have been quantified by measurement of the fluorescence intensity of the proteins divided by the number of nucleuses identified by the Hoechst (integration of the digital data by the software Developer Toolbow 1.5, GE Healthcare). […]
The TGK expression is given as the Fluorescence intensity/Number of cells (UA)

reconstructed skins [3] = assay: RT-qPCR of cutaneous ageing markers in reconstructed skins in depleted medium; conditions: reconstructed skins in deficient medium, 30 μg/ml and 60 μg/ml, dose-dependent
Protocol: (§1) Human skins reconstructed from a culture of keratinocytes sowed on a collagen lattice containing fibroblasts. The keratinocytes are cultured at 37° C., 5% CO2, at the air-liquid interface in one of the following media: Depleted culture medium: Epilife and supplements (without IGF-1 and without hydrocortisone)+CaCl2 1.5 mM+vitamin C (50 μg/ml). The following cultures have been realized: • Untreated reconstructed skins, • Skins reconstructed in a depleted medium, • Skins reconstructed in a depleted medium, each treated by a compound tested hereinabove, at a concentration of 30 μg/ml or 60 μg/ml. The reconstructed skins have been placed during the passage at the air-liquid interface (D0) in a 6-well plate in the depleted culture medium containing, or not (deficient control condition), the tested compounds. Afterwards, the reconstructed skins have been cultured for 9 days with the renewal of the culture medium containing, or not, the tested compounds every 2 to 3 days from D0 to D5, and then every day between D5 and D9. In parallel, a culture of the reconstructed skins in a complete medium has been realized, as a control test. All experimental conditions have been realized with n=4. The evaluation of the tested compound has been performed: • By histological analysis, by the histological observation of the epidermal thickness after HES (Hematoxylin-Eosin-Saffron) staining, • By RT-qPCR, by analysis of the expression of 16 markers (2 of which are reference genes) selected for their importance in cutaneous ageing, on the mRNAs extracted from the reconstructed skins for each treatment, and • By quantifying the release of MMP-1, MMP-3 and procollagen I in the suspensions of the cultures on D9, by ELISA assay, using ELISA assay kits used according to the instructions of the supplier.

MMP-1 = assay: ELISA of MMP-1 release by reconstructed skins in depleted medium; conditions: reconstructed skins in depleted culture medium, 30 μg/ml and 60 μg/ml, D9
Protocol: as §1, with “fibroblasts.” for “fibroblasts. The keratinocytes are cultured at 37° C., 5% CO2, at the air-liquid interface in one of the following media:”, “μg/ml).” for “μg/ml). The following cultures have been realized: • Untreated reconstructed skins, • Skins reconstructed in a depleted medium, • Skins reconstructed in a depleted medium, each treated by a compound tested hereinabove, at a concentration of 30 μg/ml or 60 μg/ml.”, “test.” for “test. All experimental conditions have been realized with n=4.”

reconstructed skins [4] = assay: Histological analysis (HES) of reconstructed skins in depleted medium; conditions: 30 μg/ml and 60 μg/ml, 9 days
Protocol: as §1, with “The reconstructed skins have been placed during the passage at the air-liquid interface (D0) in a 6-well plate in the depleted culture medium containing, or not (deficient control condition), the tested compounds. Afterwards, the reconstructed skins have been cultured for 9 days with the renewal of the culture medium containing, or not, the tested compounds every 2 to 3 days from D0 to D5, and then every day between D5 and D9. In parallel, a culture of the reconstructed skins in a complete medium has been realized, as a control test. All experimental conditions have been realized with n=4.” left out

procollagen I = assay: ELISA of procollagen I release by reconstructed skins in depleted medium; conditions: reconstructed skins in depleted culture medium, 30 μg/ml and 60 μg/ml, D9
Protocol: as §1, with “fibroblasts.” for “fibroblasts. The keratinocytes are cultured at 37° C., 5% CO2, at the air-liquid interface in one of the following media:”, “μg/ml).” for “μg/ml). The following cultures have been realized: • Untreated reconstructed skins, • Skins reconstructed in a depleted medium, • Skins reconstructed in a depleted medium, each treated by a compound tested hereinabove, at a concentration of 30 μg/ml or 60 μg/ml.”, “test.” for “test. All experimental conditions have been realized with n=4.”

MMP-3 = assay: ELISA of MMP-3 release by reconstructed skins in depleted medium; conditions: reconstructed skins in depleted culture medium, 30 μg/ml and 60 μg/ml, D9
Protocol: as §1, with “fibroblasts.” for “fibroblasts. The keratinocytes are cultured at 37° C., 5% CO2, at the air-liquid interface in one of the following media:”, “μg/ml).” for “μg/ml). The following cultures have been realized: • Untreated reconstructed skins, • Skins reconstructed in a depleted medium, • Skins reconstructed in a depleted medium, each treated by a compound tested hereinabove, at a concentration of 30 μg/ml or 60 μg/ml.”, “test.” for “test. All experimental conditions have been realized with n=4.”

Row | Structure (SMILES) | TGK % Control test (TGK [1]; 0.01 mg/ml) [%] | TGK % Stimulation (TGK [1]; 0.01 mg/ml) [%] | TGK Fluorescence intensity/Number of cells, Average (TGK [1]; 0.01 mg/ml) [UA] | TGK Fluorescence intensity/Number of cells (TGK [1]; 0.01 mg/ml) | TGK expression in the NHEK cultures (in words) (TGK [1]) | TGK % Control test (TGK [1]; 0.0011 mg/ml) [%] | TGK % Stimulation (TGK [1]; 0.0011 mg/ml) [%] | TGK Fluorescence intensity/Number of cells, Average (TGK [1]; 0.0011 mg/ml) [UA] | TGK Fluorescence intensity/Number of cells (TGK [1]; 0.0011 mg/ml) | TGK % Control test (TGK [1]; 0.003 mg/ml) [%] | TGK % Stimulation (TGK [1]; 0.003 mg/ml) [%] | TGK Fluorescence intensity/Number of cells, Average (TGK [1]; 0.003 mg/ml) [UA] | TGK Fluorescence intensity/Number of cells (TGK [1]; 0.003 mg/ml) | other results
1 | O=C(O)c1cc(O)c(O)c(O)c1 [Gallic acid, gallic acid] | 688 | 588 | 42738 | 47924 UA and 36228 UA and 44065 UA | induce the TGK expression in the NHEK cultures in a dose-dependent fashion | – | – | – | – | – | – | – | – | TGK % Control test (TGK [1]; 0.0003 mg/ml): 285%; TGK % Stimulation (TGK [1]; 0.0003 mg/ml): 165%; TGK Fluorescence intensity/Number of cells, Average (TGK [1]; 0.0003 mg/ml): 16260 UA; TGK Fluorescence intensity/Number of cells (TGK [1]; 0.0003 mg/ml): 18328 UA and 15263 UA and 15730 UA; TGK % Control test (TGK [1]; 0.03 mg/ml): 1110%; TGK % Stimulation (TGK [1]; 0.03 mg/ml): 1019%; TGK Fluorescence intensity/Number of cells, Average (TGK [1]; 0.03 mg/ml): 60518 UA; TGK Fluorescence intensity/Number of cells (TGK [1]; 0.03 mg/ml): 73870 UA and 53013 UA and 81670 UA
2 | [Ca+2].[Cl-].[Cl-] [CaCl2, reference compound] | – | – | – | – | – | – | – | – | – | – | – | – | – | TGK % Control test (TGK [1]; 1.5 mM): 473%; TGK % Stimulation (TGK [1]; 1.5 mM): 373%; TGK Fluorescence intensity/Number of cells, Average (TGK [1]; 1.5 mM): 29160 UA; TGK Fluorescence intensity/Number of cells (TGK [1]; 1.5 mM): 24066 UA and 30013 UA and 23527 UA; TGK Fluorescence intensity/Number of cells (TGK [1]; 1.5 mM, listed as Ca): 22987 UA and 24146 UA and 32180 UA; TGK % Control test (TGK [1]; 1.5 mM, listed as Ca): 425%; TGK % Stimulation (TGK [1]; 1.5 mM, listed as Ca): 325%; TGK Fluorescence intensity/Number of cells, Average (TGK [1]; 1.5 mM, listed as Ca): 20404 UA; TGK expression Average (Fluorescence intensity/Number of cells) (TGK [2]): 69610 UA; TGK expression, Control test % (TGK [2]): 316%
3 | O=C1OC[C@H]2OC(=O)c3cc(O)c(O)c(O)c3-c3c(O)c(O)c(O)c4c3C(=O)O[C@H]([C@H]3OC(=O)c5c-4c(O)c(O)c(O)c5[C@@H]3O)[C@@H]2OC(=O)c2cc(O)c(O)c(O)c2-c2c1cc(O)c(O)c2O [Vescalagin] | 702 | 602 | 43284 | 27714 UA and 45383 UA and 98755 UA | induce the TGK expression in the NHEK cultures in a dose-dependent fashion | 287 | 187 | 17722 | 22033 UA and 16688 UA and 14446 UA | 589 | 589 | 42460 | 32859 UA and 40124 UA and 54396 UA | expression of the inflammation markers (RT-qPCR) (reconstructed skins [3]): decrease of the expression of IL1B and PTGS2 to a lesser extent; expression of the marker of the extracellular matrix COLIA1 (RT-qPCR) (reconstructed skins [3]): increase of the expression of the marker of the extracellular matrix COLIA1; expression of the markers involved in the degradation of the extracellular matrix (RT-qPCR) (reconstructed skins [3]): decrease of the expression of the genes MMP1, MMP3 and TFPI2; expression of the markers of the cells of the basal layer (RT-qPCR) (reconstructed skins [3]): increase of the marker of the cell cycle MKI67; expression of the more tardive markers of the differentiation of the keratinocytes (RT-qPCR) (reconstructed skins [3]): decrease of the expression of TGM1 and CDSN; release of MMP-1 (ELISA) (MMP-1): major and significant decrease; epidermis/dermis cohesion (HES) (reconstructed skins [4]): Partial recovery of the epidermis/dermis cohesion; histology (HES) (reconstructed skins [4]): improvement of their histology; release of procollagen I (ELISA) (procollagen I): No modification; release of MMP-3 (ELISA) (MMP-3): major and significant decrease
4 | O=C1OC[C@H]2OC(=O)c3cc(O)c(O)c(O)c3-c3c(O)c(O)c(O)c4c3C(=O)O[C@H]([C@H]3OC(=O)c5c-4c(O)c(O)c(O)c5[C@H]3O)[C@@H]2OC(=O)c2cc(O)c(O)c(O)c2-c2c1cc(O)c(O)c2O [Castalagin] | 714 | 614 | 44055 | 59547 UA and 22164 UA and 50453 UA | induce the TGK expression in the NHEK cultures in a dose-dependent fashion | 202 | 162 | 16135 | 21020 UA and 15623 UA and 11760 UA | 436 | 330 | 26867 | 30752 UA and 20672 UA and 23177 UA | –
